Consider one sequence from PMC9296036, “A peptide interfering with the dimerization of oncogenic KITENIN protein and its stability suppresses colorectal tumour progression” (Clinical and Translational Medicine, 2022).

The data set can be described thus: Stability of KDIP in mouse serum in vitro (LC-MS/MS). The class given is in vitro ADME. To be noted: 10 pmol KDIP spiked to 10 μl serum, room temperature, 0-160 min (7 times), LC-MS/MS MRM, n=3 per time. As to the method:
Experiment for stability in serum was conducted with seven different incubation time (0, 5, 10, 20, 40, 80, 160 min). KDIP 10 pmol was spiked to 10 μl of serum, and samples were incubated at room temperature. Samples for each incubation time were triplicated.
Peptide extraction from serum or tissue lysate was performed by solid‐phase extraction using Oasis HLB Cartridge 1‐cm^3 (30 mg). HLB cartridges were conditioned using ACN (1 ml) and 50% ACN, .5% FA (1 ml), followed by equilibration using .5% FA (2 ml). A volume of 10‐μl serum and 20 μl of tissue lysate were added by .5% FA to be 1 ml and were loaded on equilibrated cartridges. […]
Each sample was analysed using an Agilent 1100 Series high‐performance liquid chromatography pump (Agilent Technologies, USA) coupled to an LTQ linear ion trap mass spectrometer (Thermo Finnigan, USA). […] Peptide was quantified by multiple reaction monitoring (MRM) in positive ion mode, with a spray voltage of 2.3 kV. […] Furthermore, truncated forms ([…], […]) of KDIP that were detected during stability test were also analysed by following transitions: 468.5 → 404.8 (b16 ^+5), 468.5 → 444.85 (b18 ^+5), 468.5 → 505.7 (b16 ^+4), 468.5 → 551.35 (b18 + H2O^+4), 468.5 → 555.7 (b18 ^+4), 528.45 → 448.85 (b14 ^+4), 528.45 → 499.0 (b16 ^+4), 528.45 → 598.15 (b14 ^+3), 528.45 → 659.25 (b16 + H2O^+3) and 528.45 → 664.95 (b16 ^+3). […]

Ends that are not written are not given here.

Regarding YARVRRRGPRRWRLVSDEAV [KDIP], the “terminal half-life in mouse serum in vitro” value amounted to 30.86 min.
